Laboratory results from PMC10525585, “Evaluation of the Antibacterial Effect of Aurone-Derived Triazoles on Staphylococcus aureus” (Antibiotics, 2023).
Read-outs that look alike come from different tables or passages of the source.

Experiments:
Hemolysis assay = assay type: cell-based, human; conditions: human, human red blood cells (0.5% final suspension, single donor), 1 h, 37 °C, read-out: Hemolysis by AT Compounds (%)
Method: (§1) A single donor-specific blood sample was acquired from Innovative Research Inc. (Novi, MI, USA) for the assay (donor#:1WB3ALS40ML-36517). A volume of 1–2 mL of the human red blood cells (hRBCs in Alsevier’s solution) was mixed with 8–10 mL of Phosphate-Buffered Saline (PBS) in a 15 mL centrifuge tube to pellet by centrifugation at 1400× g in a swinging bucket centrifuge for 10 min. The supernatant was then removed, and the cells were washed with 10 mL of PBS two additional times. The cells were resuspended in PBS to achieve a final 1% solution of hRBCs.
(§2) The wells of a 96-well U-bottom plate that contained AT compounds were prefilled with 50 µL of PBS. A 2-fold dilution of AT compounds was prepared. For each triplicate, an initial AT dilution was prepared using 6 µL of AT stock solution in 144 µL of PBS. This initial mixture was diluted 2-fold on a 96-well plate following the method described above for a final volume of 50 µL of diluted AT in each well. As a final step, 50 µL of the 1% hRBC solution was added to each well, except the blank wells. PBS and hRBCs were used for negative control, whereas hRBCs with 1% and 0.1% Triton-X100 were used as positive controls. After 1 h of incubation at 37 °C in a humidified incubator, the plate was centrifuged at 1000 rpm for 10 min in a Thermo Sorvall Legend XTR centrifuge with a TX-750 swinging bucket rotor (Thermo Fisher Scientific, Waltham, MA, USA) to pellet intact cells. After centrifugation, 50 µL of supernatant was transferred from each well into a new 96-well U-bottom plate and hemolysis of the hRBCs detected in a plate-reader for absorbance at 405 nm. Hemolytic activity for all concentrations of the ATs was computed following this formula:(1) % hemolysis=OD405nmsample− OD405nmnegative control/OD405nmpositivecontrol[…]

human red blood cells = assay: Hemolysis assay; assay type: cell-based; conditions: overall statement
Method: as §1, §2

[1] = test system: methicillin-sensitive S. aureus ATCC 29213 (MSSA); assay: microbe, parasite or virus in culture; conditions: for IC50 / inhibition at 100 µM: Staphylococcus aureus; for IC50: read-out: IC50 (µM) MSSA; for inhibition at 100 µM: read-out: MSSA inhibition (100µM); for Max SI (CC50/IC50): HepG2 CC50 / MSSA IC50
Method: (§3) MRSA strain ATCC 43300 and MSSA strain S. aureus ATCC 29213 were grown on Tryptic Soy Agar (TSA) plates. Before use, an isolated colony was transferred from the TSA plate into Tryptic Soy Broth (TSB) and incubated 18–24 h in a humidified incubator at 37 °C. To adjust for a standard concentration of bacteria, the turbidity of the culture was measured at 600 nm, and its optical density (OD600) adjusted to be in the range 0.08–0.12 which equates to a concentration of approximately 1 × 10^8 CFU/mL. This suspension was diluted 1:20 in TSB. […] MRSA strain S. aureus ATCC 43300 and MSSA strain S. aureus ATCC 29213 were used for all testing in this study.
(§4) The assay for anti-Staphylococcal activity of AT compounds was prepared in 96-well transparent, U-bottom plates. A series of 2-fold dilutions of AT concentrations was tested in triplicate, with each well containing 10 µL of prepared bacterium and 90 µL of AT mixture in CAMHB. […] Blank wells with only CAMHB, a negative control well with 10 µL of bacterium solution mixed into 90 µL CAMHB, a vehicle control well with bacteria mixed into 1% DMSO in CAMBH, and a positive cell death control with vancomycin (1 µL of stock 2 mg/mL solution in 89 µL CAMHB with 10 µL of bacteria) were included. The plate was incubated for 18–24 h at 37 °C in a humidified incubator. Before measurement, PrestoBlue^TM dye (Invitrogen, Carlsbad, CA, USA) was added (10 µL per well) and incubated for 1 h with aluminum foil covering the plate. A CLARIOstar® (BMG LABTECH, Cary, NC, USA) multi-mode plate reader was used to measure the fluorescence at wavelengths of 560 nm for excitation and 590 nm for emission. Inhibitory concentration (IC50) values were defined as half inhibitory concentration and were computed using GraphPad Prism version 9.1 software.

[2] = Cytotoxicity assay (PrestoBlue); assay type: cell-based, Human; conditions: human, HepG2 cells (ATCC HB-8065), Table 1 and text; 24 h incubation
Method: Human HeLa epithelial (ATCC CCL-2) and HepG2 liver epithelial (ATCC HB-8065) cell lines were used to determine toxicity of AT compounds for mammalian cells. The cells were grown in a complete culture medium of RPMI 1640 with 10% heat-inactivated fetal bovine serum (FBS) at 37 °C in 5% CO2 (95% room air) in a humidified incubator. Before use, attached cell monolayers, which had reached at least 90% confluency, were detached by trypsinization with trypsin-EDTA (0.25%) and resuspension in fresh complete culture media. For experiments, the stock concentration of 1 × 10^5 cells/mL (to achieve a final 1 × 10^4 cells/well concentration) was achieved by counting the trypsinized cells and adjusting to their final concentration for assays.
HeLa or HepG2 cells were pre-seeded into a 96-well transparent, flat bottom plate by adding a volume of 100 µL stock cell concentration (1 × 10^5 cells/mL) in complete culture media to each well. The plate was incubated overnight at 37 °C in a 5% CO2 (95% room air) humidified incubator. After the incubation and before mixing in the AT compounds, a 100 µL volume of fresh complete culture media was added to the pre-seeded wells. The 2-fold dilutions of AT compounds in triplicates were prepared on a separate 96-well plate. Once the dilution plate was prepared, dilutions were transferred into the pre-seeded plate to achieve the same concentrations of ATs as for the inhibition assay described above. The final inoculated plate was then returned to the 5% CO2 (95% room air) humidified incubator for an additional 24 h of incubation with the diluted ATs. Controls were blank wells containing only media, wells with cells and DMSO in complete culture media, and wells with cells and complete culture media only. Measurement of toxicity was analogous to the inhibition assay except that 20 µL of PrestoBlue^TM was used and the incubation was 3–6 h before reading with the plate-reader. Cytotoxicity concentration (CC50) was defined as the concentration where half of the cells remained viable and was computed using GraphPad Prism.

[3] = test system: methicillin-resistant S. aureus ATCC 43300 (MRSA); assay: Antibacterial assay (broth microdilution, PrestoBlue); assay type: cell-based, Staphylococcus aureus
Method: as §3, §4

pre-formed MSSA biofilms = assay: Biofilm assay (BacLight live/dead confocal imaging); assay type: cell-based, Staphylococcus aureus; conditions: for Fold Change in Dead Cells / Fold Change in Total Cells / Percent Change in Dead Cells / Percent Change in Total Cells: versus mock-treated control; for Dead Cell Count / Living Cell Count / Total Cell Count: 48 h biofilm treated 24 h with 100 µM AT; for Dead Cell Count: control 96; for Living Cell Count: control 2124; for Total Cell Count: control 2220
Method: To prepare AT-treated cultures, overnight bacterial cultures were used (adjusted to 1 × 10^8 CFU/mL) in BHI medium to grow biofilm in 35 mm MatTEK dishes with a 20 mm glass bottom well by adding 1500 µL of overnight bacteria per dish. The dishes were incubated at 37 °C in a humidified incubator for 48 h. The old media was refreshed by adding 1500 µL of BHI for the control, or the AT mixture (15 µL of AT stock with 1485 µL BHI to achieve 100 µM AT concentration), or DMSO mixture (15 µL DMSO with 1485 µL BHI) for negative control. The dishes were then incubated in a humidified incubator for an additional 24 h at 37 °C. The media was removed, and cells were washed twice with 500 µL PBS, followed by the addition of 50 µL BacLight^TM with 250 µL PBS for 15 min. Biofilms were imaged using a Zeiss AxioObserver microscope with an LSM700 confocal module (Carl Zeiss Microscopy, White Plains, NY, USA). To assess biofilm disruption, Fiji software version 2.14.0 was used. Initially, raw microscope images were imported, separating the color channels, as dead cells were stained fluorescent red and living cells were stained green. To allow particle counts, the color saturation threshold was set using the RenyiEntropy option to clear the images from potential noise. This step was followed by watershed separation, which separates potentially overlapping cells, and then particle analysis was completed using the 0.5–1.5 micron size as a guide. Biofilm disruption was quantified both by reductions in total bacterial cell numbers and increases in dead cell numbers.

[4] = Staphylococcus aureus, Table 1 and text, 18–24 h, CAMHB, read-out: IC50 (µM) MRSA
[5] = Staphylococcus aureus, Table S1
[6] = Staphylococcus aureus, Table S1, read-out: IC50 MRSA

## O=C(c1ccccc1O)c1n[nH]nc1-c1ccc(Br)s1 [AT137]
Hemolysis assay
  hemolysis at 1 h, 3.125 µM: -2.6%
  hemolysis at 1 h, 6.25 µM: -0.5%
  hemolysis at 1 h, 12.5 µM: -0.8%
  hemolysis at 1 h, 25 µM: 2.7%
  hemolysis at 1 h, 50 µM: 1.4%
  hemolysis at 1 h, 100 µM: 1.8%
Human red blood cells
  hemolytic activity for human erythrocytes: not hemolytic
[1]
  IC50: 3.09 µM
  inhibition at 100 µM: 87.5%
[2]
  CC50 at 24 h: 39.8 µM
[3]; [4]
  IC50: < 6 µM
[3]; [5]
  inhibition at 100 µM: 93.8%
[3]; Table 1 and text, 18–24 h, CAMHB, read-out: IC50 (µM) MRSA
  IC50: 3.87 µM
pre-formed MSSA biofilms; 100 µM AT, 24 h
  Fold Change in Dead Cells: -0.8021
  Fold Change in Total Cells: -0.9347
  Percent Change in Dead Cells: -80.21%
  Percent Change in Total Cells: -93.47%
pre-formed MSSA biofilms
  Dead Cell Count: 19
  Living Cell Count: 126
  Total Cell Count: 145

## O=C(c1ccccc1O)c1n[nH]nc1-c1cccc(C(F)(F)F)c1 [AT116]
Hemolysis assay
  hemolysis at 1 h, 3.125 µM: 0.8%
  hemolysis at 1 h, 6.25 µM: -0.7%
  hemolysis at 1 h, 12.5 µM: 2.3%
  hemolysis at 1 h, 25 µM: 2.1%
  hemolysis at 1 h, 50 µM: 2.6%
  hemolysis at 1 h, 100 µM: 3.5%
Human red blood cells
  hemolytic activity for human erythrocytes: not hemolytic
[1]
  Max SI (CC50/IC50): 16.01
  IC50: 3.18 µM
  inhibition at 100 µM: 82%
[2]
  CC50 at 24 h: 50.9 µM
[3]; [4]
  IC50: 8.29 µM
[3]; [6]
  IC50: 35.4 µM
[3]; [5]
  inhibition at 100 µM: 100%
pre-formed MSSA biofilms; 100 µM AT, 24 h
  Fold Change in Dead Cells: 2.417
  Fold Change in Total Cells: -0.4212
  Percent Change in Dead Cells: 241.67%
  Percent Change in Total Cells: -42.12%
pre-formed MSSA biofilms
  Dead Cell Count: 328
  Living Cell Count: 957
  Total Cell Count: 1285
pre-formed MSSA biofilms; pre-formed biofilm, 100 µM AT, 24 h
  disruption of MSSA biofilms: successfully disrupted MSSA biofilms

## O=C(c1ccccc1O)c1n[nH]nc1-c1ccc(Cl)cc1 [AT106]
Hemolysis assay
  hemolysis at 1 h, 3.125 µM: 0.6%
  hemolysis at 1 h, 6.25 µM: -0.1%
  hemolysis at 1 h, 12.5 µM: 1.2%
  hemolysis at 1 h, 25 µM: 1.2%
  hemolysis at 1 h, 50 µM: -0.3%
  hemolysis at 1 h, 100 µM: 1.1%
Human red blood cells
  hemolytic activity for human erythrocytes: not hemolytic
[1]
  Max SI (CC50/IC50): 12.99
  IC50: 5.44 µM
  inhibition at 100 µM: 87.4%
[2]
  CC50 at 24 h: > 60 µM
[3]; [4]
  IC50: 22.4 µM
[3]; [6]
  IC50: 23.5 µM
[3]; [5]
  inhibition at 100 µM: 64.1%
pre-formed MSSA biofilms; 100 µM AT, 24 h
  Fold Change in Dead Cells: -0.75
  Fold Change in Total Cells: -0.8914
  Percent Change in Dead Cells: -75.00%
  Percent Change in Total Cells: -89.14%
pre-formed MSSA biofilms
  Dead Cell Count: 24
  Living Cell Count: 217
  Total Cell Count: 241
